{"source": "ChEMBL document CHEMBL2202963", "about": "“GPR119 Modulators for the Treatment of Diabetes, Obesity, and Related Diseases: Patent Highlight” (ACS Med Chem Lett, 2012)", "key": {"[1]": {"target": "T1, Glucose-dependent insulinotropic receptor (Homo sapiens, UniProt Q8TDV5)", "T1 sequence (Q8TDV5 whole entry)": "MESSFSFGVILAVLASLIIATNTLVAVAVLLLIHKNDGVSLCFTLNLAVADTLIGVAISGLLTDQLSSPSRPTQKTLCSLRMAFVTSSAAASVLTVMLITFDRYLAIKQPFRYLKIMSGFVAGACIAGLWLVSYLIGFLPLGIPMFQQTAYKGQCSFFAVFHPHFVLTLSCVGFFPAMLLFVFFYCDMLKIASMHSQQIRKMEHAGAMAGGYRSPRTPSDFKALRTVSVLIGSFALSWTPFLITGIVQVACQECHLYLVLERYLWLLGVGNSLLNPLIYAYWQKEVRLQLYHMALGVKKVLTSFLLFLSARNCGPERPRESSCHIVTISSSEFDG", "experiment": "Agonist activity at human GPR119 expressed in MIN6 cells assessed as intracellular cAMP concentration after 45 mins by Alphascreen analysis", "format": "functional, cell-based"}, "Rhesus monkey [2]": {"system": "Rhesus monkey", "experiment": "Drug metabolism in monkey assessed as 3-fluoro-4-(5-fluoro-6-(4-(3-(2-fluoropropan-2-yl)-l, 2,4-oxadiazol-5-yl)piperidin-l -yl)pyrimidin-4-ylamino)benzoic acid metabolite by LC/MS/MS analysis", "format": "ADME, organism-based, Macaca mulatta", "settings": "in vivo; call rule not given here"}, "Rhesus monkey [3]": {"system": "Rhesus monkey", "experiment": "Drug metabolism in monkey assessed as 3-fluoro-4-(5-fluoro-6-(4-(3-(2-fluoropropan-2-yl)-1,2,4-oxadiazol-5-yl)piperidin-1-yl)pyrimidin-4-ylamino)benzamide metabolite by LC/MS/MS analysis", "format": "ADME, organism-based, Macaca mulatta", "settings": "in vivo"}, "Rhesus monkey [4]": {"system": "Rhesus monkey", "experiment": "Drug metabolism in monkey assessed as 3-fluoro-4-(5-fluoro-6-(4-(3-(2-fluoropropan-2-yl)-1,2,4-oxadiazol-5-yl)piperidin-1-yl)pyrimidin-4-ylamino)-N-methylbenzamide metabolite by LC/MS/MS analysis", "format": "ADME, organism-based, Macaca mulatta", "settings": "in vivo"}, "Canis familiaris [5]": {"species": "Canis familiaris", "experiment": "Drug metabolism in dog assessed as 3-fluoro-4-(5-fluoro-6-(4-(3-(2-fluoropropan-2-yl)-l, 2,4-oxadiazol-5-yl)piperidin-l -yl)pyrimidin-4-ylamino)benzoic acid metabolite by LC/MS/MS analysis", "format": "ADME, organism-based, Canis lupus familiaris", "settings": "in vivo"}, "Canis familiaris [6]": {"species": "Canis familiaris", "experiment": "Drug metabolism in dog assessed as 3-fluoro-4-(5-fluoro-6-(4-(3-(2-fluoropropan-2-yl)-1,2,4-oxadiazol-5-yl)piperidin-1-yl)pyrimidin-4-ylamino)benzamide metabolite by LC/MS/MS analysis", "format": "ADME, organism-based, Canis lupus familiaris", "settings": "in vivo"}, "Canis familiaris [7]": {"species": "Canis familiaris", "experiment": "Drug metabolism in dog assessed as 3-fluoro-4-(5-fluoro-6-(4-(3-(2-fluoropropan-2-yl)-1,2,4-oxadiazol-5-yl)piperidin-1-yl)pyrimidin-4-ylamino)-N-methylbenzamide metabolite by LC/MS/MS analysis", "format": "ADME, organism-based, Canis lupus familiaris", "settings": "in vivo"}, "Rattus norvegicus [8]": {"species": "Rattus norvegicus", "experiment": "Drug metabolism in rat assessed as 3-fluoro-4-(5-fluoro-6-(4-(3-(2-fluoropropan-2-yl)-l, 2,4-oxadiazol-5-yl)piperidin-l -yl)pyrimidin-4-ylamino)benzoic acid metabolite by LC/MS/MS analysis", "format": "ADME, organism-based", "settings": "in vivo"}, "Rattus norvegicus [9]": {"species": "Rattus norvegicus", "experiment": "Drug metabolism in rat assessed as 3-fluoro-4-(5-fluoro-6-(4-(3-(2-fluoropropan-2-yl)-1,2,4-oxadiazol-5-yl)piperidin-1-yl)pyrimidin-4-ylamino)benzamide metabolite by LC/MS/MS analysis", "format": "ADME, organism-based", "settings": "in vivo"}, "Rattus norvegicus [10]": {"species": "Rattus norvegicus", "experiment": "Drug metabolism in rat assessed as 3-fluoro-4-(5-fluoro-6-(4-(3-(2-fluoropropan-2-yl)-1,2,4-oxadiazol-5-yl)piperidin-1-yl)pyrimidin-4-ylamino)-N-methylbenzamide metabolite by LC/MS/MS analysis", "format": "ADME, organism-based", "settings": "in vivo"}, "Mus musculus [11]": {"species": "Mus musculus", "experiment": "Drug metabolism in mouse assessed as 3-fluoro-4-(5-fluoro-6-(4-(3-(2-fluoropropan-2-yl)-l, 2,4-oxadiazol-5-yl)piperidin-l -yl)pyrimidin-4-ylamino)benzoic acid metabolite by LC/MS/MS analysis", "format": "ADME, organism-based", "settings": "in vivo"}, "Mus musculus [12]": {"species": "Mus musculus", "experiment": "Drug metabolism in mouse assessed as 3-fluoro-4-(5-fluoro-6-(4-(3-(2-fluoropropan-2-yl)-1,2,4-oxadiazol-5-yl)piperidin-1-yl)pyrimidin-4-ylamino)benzamide metabolite by LC/MS/MS analysis", "format": "ADME, organism-based", "settings": "in vivo"}, "Mus musculus [13]": {"species": "Mus musculus", "experiment": "Drug metabolism in mouse assessed as 3-fluoro-4-(5-fluoro-6-(4-(3-(2-fluoropropan-2-yl)-1,2,4-oxadiazol-5-yl)piperidin-1-yl)pyrimidin-4-ylamino)-N-methylbenzamide metabolite by LC/MS/MS analysis", "format": "ADME, organism-based", "settings": "in vivo"}, "[14]": {"target": "T1, Glucose-dependent insulinotropic receptor", "experiment": "Agonist activity at GPR119 expressed in CHO-K1 cells assessed as cAMP level after 1 hr by homogenous time-resolved fluorescence assay", "format": "functional, cell-based"}}, "data": [{"molecule": "CCc1cnc(N2CCC(C3Cc4cc(-c5ccc(C(=O)N6CC(F)(F)C6)cc5)ccc4O3)CC2)nc1", "note": "(stereo not given)", "values": [{"measurement": "EC50", "setting": "[1]", "result": 228, "unit": "nM"}]}, {"molecule": "CN(C)C(=O)c1ccc(Nc2ncnc(N3CCC(c4nc(C(C)(C)F)no4)CC3)c2F)c(F)c1", "values": [{"measurement": "Drug metabolism", "setting": "Rhesus monkey [2]", "result": "Active"}, {"measurement": "Drug metabolism", "setting": "Rhesus monkey [3]", "result": "Active"}, {"measurement": "Drug metabolism", "setting": "Rhesus monkey [4]", "result": "Active"}, {"measurement": "Drug metabolism", "setting": "Canis familiaris [5]", "result": "Active"}, {"measurement": "Drug metabolism", "setting": "Canis familiaris [6]", "result": "Active"}, {"measurement": "Drug metabolism", "setting": "Canis familiaris [7]", "result": "Active"}, {"measurement": "Drug metabolism", "setting": "Rattus norvegicus [8]", "result": "Active"}, {"measurement": "Drug metabolism", "setting": "Rattus norvegicus [9]", "result": "Active"}, {"measurement": "Drug metabolism", "setting": "Rattus norvegicus [10]", "result": "Active"}, {"measurement": "Drug metabolism", "setting": "Mus musculus [11]", "result": "Active"}, {"measurement": "Drug metabolism", "setting": "Mus musculus [12]", "result": "Active"}, {"measurement": "Drug metabolism", "setting": "Mus musculus [13]", "result": "Active"}]}, {"molecule": "CC(C)(F)c1noc(C2CCN(c3ncnc(Nc4ccc(C(=O)O)cc4F)c3F)CC2)n1", "values": [{"measurement": "EC50", "setting": "[14]", "result": 100000, "unit": "nM"}]}, {"molecule": "CCc1cnc(N2CCC(C3Cc4cc(C5CCN(S(C)(=O)=O)CC5)ncc4O3)CC2)nc1", "note": "(stereo not given)", "values": [{"measurement": "EC50", "setting": "[1]", "result": 2, "unit": "nM"}]}]}
